Assay results published in patent publication US20250034110A1, “LPAR1 ANTAGONISTS AND USES THEREOF” (Pipeline Therapeutics, Inc., priority 2021, published 2025).
Read-outs that look alike come from different tables or passages of the source.

Target: human LPAR1 (Homo sapiens, UniProt Q92633)
Test: In vitro functional assay of lysophosphatidic acid receptor 1 activity (calcium flux)
Assay type: cell-based
[1] = B103 cells stably expressing human LPAR1, calcium flux (Fluo-4 NW) after lysophosphatidic acid (18:1) at EC80, 100 pM to 10 μM, read-out: LPAR1 IC50

Sequence of human LPAR1 (Q92633 whole entry): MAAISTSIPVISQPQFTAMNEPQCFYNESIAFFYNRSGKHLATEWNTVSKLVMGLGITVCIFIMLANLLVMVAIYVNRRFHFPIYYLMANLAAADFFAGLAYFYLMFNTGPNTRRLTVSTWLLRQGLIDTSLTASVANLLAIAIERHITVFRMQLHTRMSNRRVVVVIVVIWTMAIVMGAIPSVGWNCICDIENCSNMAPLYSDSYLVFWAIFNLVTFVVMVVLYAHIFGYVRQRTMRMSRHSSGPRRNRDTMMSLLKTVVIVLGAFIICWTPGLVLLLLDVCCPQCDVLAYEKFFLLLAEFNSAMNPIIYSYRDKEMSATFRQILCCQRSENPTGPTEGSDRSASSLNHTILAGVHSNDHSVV

Row | SMILES | IC50 [1] [nM] | IC50 (LPAR1 IC50) [nM]
1 | Cc1ccc(NC(=O)N(c2ccccc2C(C)C)C2CC3(CCC(C(=O)O)CC3)C2)c(OC(F)F)n1 (centres unmarked) [Example 249] | 10 to 100 | –
2 | CC(C)c1ccccc1N(C(=O)Nc1cc(F)c(F)cc1OC(F)F)[C@H]1C[C@@H](CC(=O)O)C1 [Example 329] | < 10 | –
3 | Cc1ccc(NC(=O)N(c2ccccc2C(C)C)[C@H]2C[C@@H](C(N)=O)C2)c(OC(F)F)n1 [Example 187] | > 1000 | –
4 | COc1ccc(NC(=O)N(c2ccccc2C(C)C)C2CC3CC2CN3C(C)=O)c(OC(F)F)n1 (centres unmarked) [Example 57, 1-(2-acetyl-2-azabicyclo[2.2.1]heptan-5-yl)-3-(2-(difluoromethoxy)-6-methoxypyridin-3-yl)-1-(2-isopropylphenyl)urea] | – | 100 to 1000
5 | CC(=O)N1CC(N(C(=O)Nc2ccc(C)nc2OC(F)F)c2ccccc2C(C)C)C1 [Example 67, 1-(1-acetylazetidin-3-yl)-3-(2-(difluoromethoxy)-6-methylpyridin-3-yl)-1-(2-isopropylphenyl)urea] | 10 to 100 | –
6 | Cc1cc(OC(F)F)c(NC(=O)N(C[C@H]2C[C@H](C(=O)O)C2)c2ccccc2C(C)C)cn1 [Example 227] | 10 to 100 | –
7 | COc1ccc(NC(=O)N(c2ccccc2C(C)C)[C@H]2CC[C@H](C(=O)NS(C)(=O)=O)CC2)c(OC(F)F)n1 [Example 279, (1r,4r)-4-(3-(2-(difluoromethoxy)-6-methoxypyridin-3-yl)-1-(2-isopropylphenyl)ureido)-N-(methylsulfonyl)cyclohexane-1-carboxamide] | < 10 | –
8 | CC(C)c1ccccc1N(C(=O)Nc1ccc(Cl)c(F)c1)[C@H]1CC[C@H](C(=O)O)CC1 [Example 158, trans-4-(3-(4-chloro-3-fluorophenyl)-1-(2-isopropylphenyl)ureido)cyclohexane-1-carboxylic acid] | 10 to 100 | –
9 | Cc1ccc(NC(=O)N(C[C@@H]2C[C@H]2C(=O)O)c2ccccc2C(C)C)c(OC(F)F)n1 (racemic) [Example 228] | 100 to 1000 | –
10 | Cc1ccc(NC(=O)N(CC2CC(CC(=O)O)C2)c2ccccc2C(C)C)c(OC(F)F)n1 (centres unmarked) [Example 224] | < 10 | –
11 | CC(C)c1ccccc1N(C(=O)Nc1cc(F)c(C2CC2)nc1OC(F)F)[C@H]1CC[C@H](C(=O)O)CC1 [Example 223] | 10 to 100 | –
12 | CC(=O)N1CCC(N(C(=O)Nc2ccc(C(F)F)nc2OC(F)F)c2ccccc2C(C)C)CC1 [Example 115] | – | 10 to 100
13 | Cc1ccc(NC(=O)N(c2ccccc2C(C)C)[C@H]2C[C@@H](Cc3nnn[nH]3)C2)c(OC(F)F)n1 [Example 192] | 10 to 100 | –
14 | Cc1ccc(NC(=O)N(c2ccccc2C(C)C)C2CN(C(=O)Cn3nccn3)C2)c(OC(F)F)n1 [Example 80, 1-(1-(2-(2H-1,2,3-triazol-2-yl)acetyl)azetidin-3-yl)-3-(2-(difluoromethoxy)-6-methylpyridin-3-yl)-1-(2-isopropylphenyl)urea] | 100 to 1000 | –
15 | Cc1ccc(NC(=O)N(c2ccccc2C(C)C)[C@H]2CCN(S(C)(=O)=O)C2)c(OC(F)F)n1 [Example 75, (S)-3-(2-(difluoromethoxy)-6-methylpyridin-3-yl)-1-(2-isopropylphenyl)-1-(1-(methylsulfonyl)pyrrolidin-3-yl)urea] | 10 to 100 | –
16 | Cc1ccc(NC(=O)N(c2ccccc2C(C)C)[C@H]2C[C@H](C(N)=O)C2)c(OC(F)F)n1 [Example 186, (1r,3r)-3-(3-(2-(difluoromethoxy)-6-methylpyridin-3-yl)-1-(2-isopropylphenyl)ureido)cyclobutane-1-carboxamide] | > 1000 | –
17 | Cc1ccc(NC(=O)N(c2ccccc2C(C)C)[C@@H]2CCC(=O)N(C)C2)c(OC(F)F)n1 [Example 5, (R)-3-(2-(difluoromethoxy)-6-methylpyridin-3-yl)-1-(2-isopropylphenyl)-1-(1-methyl-6-oxopiperidin-3-yl)urea] | 10 to 100 | –
18 | Cc1ccc(NC(=O)N(c2ccccc2C(C)C)C2CC(=O)N(C)C2)c(OC(F)F)n1 (centres unmarked) [Example 7, 3-(2-(difluoromethoxy)-6-methylpyridin-3-yl)-1-(2-isopropylphenyl)-1-(1-methyl-5-oxopyrrolidin-3-yl)urea] | 100 to 1000 | –
19 | CC(C)c1ccccc1N(C(=O)Nc1ccc(Cl)cn1)[C@H]1C[C@@H](CC(=O)O)C1 [Example 306] | 100 to 1000 | –
20 | Cc1ccc(NC(=O)N(c2ccccc2C(C)C)[C@H]2CC[C@@H](CC(=O)O)CC2)c(OC(F)F)n1 [Example 166, 2-((1s,4s)-4-(3-(2-(difluoromethoxy)-6-methylpyridin-3-yl)-1-(2-isopropylphenyl)ureido)cyclohexyl)acetic acid] | 10 to 100 | –
21 | Cc1ccc(NC(=O)N(c2ccccc2C(C)C)C2CN(C3COC3)C2)c(OC(F)F)n1 [Example 22, 3-(2-(difluoromethoxy)-6-methylpyridin-3-yl)-1-(2-isopropylphenyl)-1-(1-(oxetan-3-yl)azetidin-3-yl)urea] | 100 to 1000 | –
22 | COc1ccc(NC(=O)N(c2ccccc2C(C)C)[C@H]2CC[C@@H](C(=O)O)CC2)c(OC(F)F)n1 [Example 145] | 100 to 1000 | –

Row | SMILES | IC50 [1] [nM] | IC50 (LPAR1 IC50) [nM]
23 | COC[C@H](C)Oc1cc(C)ncc1NC(=O)N(c1ccccc1C(C)C)[C@H]1CC[C@H](C(=O)O)CC1 [Example 317, trans-4-(1-(2-isopropylphenyl)-3-(4-(((S)-1-methoxypropan-2-yl)oxy)-6-methylpyridin-3-yl)ureido)cyclohexane-1-carboxylic acid] | 100 to 1000 | –
24 | CC(=O)N1CCC(N(C(=O)Nc2ncc(C(F)(F)F)cc2Br)c2ccccc2C(C)C)CC1 [Example 139] | – | > 1000
25 | COc1ccc(NC(=O)N(c2ccccc2C(C)C)[C@H]2CC[C@H](C(=O)O)CC2)c(OC)n1 [Example 288, (1r,4r)-4-(3-(2,6-dimethoxypyridin-3-yl)-1-(2-isopropylphenyl)ureido)cyclohexane-1-carboxylic acid] | 10 to 100 | –
26 | CC(=O)N1CCC(N(C(=O)Nc2cc(F)c(Br)nc2OC(F)F)c2ccccc2C(C)C)CC1 [Example 217] | – | 10 to 100
27 | COc1cc(Cl)c(F)cc1NC(=O)N(c1ccccc1C(C)C)[C@H]1C[C@@H](CC(=O)O)C1 [Example 330] | < 10 | –
28 | COc1ccc(NC(=O)N(c2ccccc2C(C)CO)[C@H]2CC[C@H](C(=O)O)CC2)c(OC(F)F)n1 (stereo partly drawn) [Example 282, (1r,4r)-4-(3-(2-(difluoromethoxy)-6-methoxypyridin-3-yl)-l-(2-(1-hydroxypropan-2-yl)phenyl)ureido)cyclohexane-1-carboxylic acid] | 100 to 1000 | –
29 | CC(=O)N1CC[C@H](N(C(=O)Nc2ccc(C)nc2OC(F)F)c2ccccc2C(C)C)C1 [Example 68, (S)-1-(1-acetylpyrrolidin-3-yl)-3-(2-(difluoromethoxy)-6-methylpyridin-3-yl)-1-(2-isopropylphenyl)urea] | 10 to 100 | –
30 | COC(C)c1ccccc1N(C(=O)Nc1ccc(C)nc1OC(F)F)C1CCN(C(C)=O)CC1 (centres unmarked) [Example 35, 1-(1-acetylpiperidin-4-yl)-3-(2-(difluoromethoxy)-6-methylpyridin-3-yl)-1-(2-(1-methoxyethyl)phenyl)urea] | – | 100 to 1000
31 | COc1ccc(NC(=O)N(c2ccccc2C(C)C)C2CCN(C(=O)CC#N)CC2)c(OC(F)F)n1 [Example 85, 1-(1-(2-cyanoacetyl)piperidin-4-yl)-3-(2-(difluoromethoxy)-6-methoxypyridin-3-yl)-1-(2-isopropylphenyl)urea] | – | 10 to 100
32 | COC(=O)c1cc(Br)cnc1NC(=O)N(c1ccccc1C(C)C)C1CCN(C(C)=O)CC1 [Example 226] | – | 100 to 1000
33 | Cc1ccc(NC(=O)N(c2ccccc2C(C)C)C2CCC3(CC2)COC3)c(OC(F)F)n1 [Example 236, 3-(2-(difluoromethoxy)-6-methylpyridin-3-yl)-1-(2-isopropylphenyl)-1-(2-oxaspiro[3.5]nonan-7-yl)urea] | 100 to 1000 | –
34 | COc1ccc(NC(=O)N(c2ccccc2C(C)C)[C@H]2CC[C@](O)(C(F)(F)C(=O)O)CC2)c(OC(F)F)n1 [Example 322, 2-((1s,4s)-4-(3-(2-(difluoromethoxy)-6-methoxypyridin-3-yl)-1-(2-isopropylphenyl)ureido)-1-hydroxycyclohexyl)-2,2-difluoroacetic acid] | < 10 | –
35 | COc1ccc(NC(=O)N(c2ccccc2C(C)C)[C@@H]2CCN(C(C)=O)C[C@@H]2F)c(OC(F)F)n1 [Example 49, 1-((3S,4R)-1-acetyl-3-fluoropiperidin-4-yl)-3-(2-(difluoromethoxy)-6-methoxypyridin-3-yl)-1-(2-isopropylphenyl)urea] | – | 10 to 100
36 | Cc1ccc(NC(=O)N(c2ccccc2C(C)C)[C@H]2CC[C@H](C(=O)O)C2)c(OC(F)F)n1 [Example 304] | < 10 | –
37 | Cc1ccc(NC(=O)N(c2ccccc2C(C)C)C2CN(CCC3(C(=O)O)CCC3)C2)c(OC(F)F)n1 [Example 174] | 100 to 1000 | –
38 | Cc1ccc(NC(=O)N(c2ccccc2C(C)C)[C@H]2CC[C@H](C#N)CC2)c(OC(F)F)n1 [Example 241, 1-((1r,4r)-4-cyanocyclohexyl)-3-(2-(difluoromethoxy)-6-methylpyridin-3-yl)-1-(2-isopropylphenyl)urea] | 100 to 1000 | –
39 | COc1ccc(NC(=O)N(c2ccccc2C(C)C)C2CN(C(C)=O)C2)c(OC)c1C [Example 119] | 100 to 1000 | –
40 | COC(=O)CC1CC(N(C(=O)Nc2ccc(C)nc2OC(F)F)c2ccccc2C(C)C)C1 (centres unmarked) [Example 159, methyl 2-(3-(3-(2-(difluoromethoxy)-6-methylpyridin-3-yl)-1-(2-isopropylphenyl)ureido)cyclobutyl)acetate] | 100 to 1000 | –
41 | COc1cc(C(F)F)ncc1NC(=O)N(c1ccccc1C(C)C)[C@H]1CC[C@H](C(=O)O)CC1 [Example 294, (1r,4r)-4-(3-(6-(difluoromethyl)-4-methoxypyridin-3-yl)-1-(2-isopropylphenyl)ureido)cyclohexane-1-carboxylic acid] | 100 to 1000 | –
42 | Cc1nc(OC(F)F)c(NC(=O)N(c2ccccc2C(C)C)[C@H]2CC[C@@H](CC(=O)O)CC2)cc1F [Example 222] | 10 to 100 | –
43 | CC(=O)N1CCC(N(C(=O)Nc2ccc(C)nc2OCC(F)(F)F)c2ccccc2C(C)C)CC1 [Example 104] | – | 100 to 1000
44 | Cc1ccc(NC(=O)N(c2ccccc2C(C)C)[C@H]2C[C@@H](OCc3ccccc3)C2)c(OC(F)F)n1 [Example 24, 1-((1s,3s)-3-(benzyloxy)cyclobutyl)-3-(2-(difluoromethoxy)-6-methylpyridin-3-yl)-1-(2-isopropylphenyl)urea] | > 1000 | –
